Data on 18 compounds can be found in US12043632B2, “6-heteroaryloxy benzimidazoles and azabenzimidazoles as JAK2 inhibitors” (Ajax Therapeutics, Inc., priority 2020, dated 2024).

For this test, the target named is T1, JAK2 (JH1domain-catalytic, Y1007F,Y1008F) kinase (Homo sapiens, UniProt O60674, Y1007F/Y1008F).
T1 construct: JAK2 (JH1domain-catalytic, Y1007F,Y1008F) kinase was expressed as N-terminal fusion; made in house; host or cells: transiently transfected HEK293 cells
Kind of test: JAK2 JH1 Domain Binding Assay. Conditions: qPCR readout. In general terms: In qPCR the cycle at which signal appears reflects the starting amount.

Where only a bound is given, the exact number is not on record here.

T1 sequence (O60674 849-1124 Y1007F/Y1008F limits assumed): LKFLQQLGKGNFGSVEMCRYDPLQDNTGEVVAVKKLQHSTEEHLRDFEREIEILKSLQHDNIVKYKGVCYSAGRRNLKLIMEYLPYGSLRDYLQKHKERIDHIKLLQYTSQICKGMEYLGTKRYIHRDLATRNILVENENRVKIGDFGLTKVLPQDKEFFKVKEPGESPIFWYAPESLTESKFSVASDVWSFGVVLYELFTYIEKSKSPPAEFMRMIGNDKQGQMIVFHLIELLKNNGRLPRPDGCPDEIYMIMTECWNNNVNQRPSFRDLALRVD

As a reminder, the Kd is a measure of binding affinity in units of concentration. High values mean lower affinity, low ones higher affinity. As to `CCN1CCCN(Cc2ccc(Nc3nc4ncc(Oc5cnn6ccncc56)c(Cl)c4n3C)cc2C(F)(F)F)CC1` [Example I-301, 7-chloro-N-(4-((4-ethyl-1,4-diazepan-1-yl)methyl)-3-(trifluoromethyl)phenyl)-1-methyl-6-(pyrazolo[1,5-a]pyrazin-3-yloxy)-1H-imidazo[4,5-b]pyridin-2-amine], the Kd was < 10 nM.

As to `Cn1c(Nc2cc(C(F)(F)F)cn(CCO)c2=O)nc2ncc(Oc3cnn4ccnc(N5CCOCC5)c34)c(Cl)c21` [Example I-140, 3-((7-chloro-1-methyl-6-((4-morpholinopyrazolo[1,5-a]pyrazin-3-yl)oxy)-1H-imidazo[4,5-b]pyridin-2-yl)amino)-1-(2-hydroxyethyl)-5-(trifluoromethyl)pyridin-2(1H)-one], the dissociation constant Kd fell in the range of 10 to 50 nM. The result for `CNc1cn2ncc(Oc3cnc4nc(Nc5cc(CN6CC[C@@H](OC)C6)cc(C(F)(F)F)c5)n(C)c4c3Cl)c2cn1` [Example I-308, (R)-7-chloro-N-(3-((3-methoxypyrrolidin-1-yl)methyl)-5-(trifluoromethyl)phenyl)-1-methyl-6-((6-(methylamino)pyrazolo[1,5-a]pyrazin-3-yl)oxy)-1H-imidazo[4,5-b]pyridin-2-amine] reads 10 to 50 nM.

For the compound `CNc1cn2ncc(Oc3cnc4nc(Nc5cc(C(F)(F)F)cn([C@H]6CCOC6)c5=O)n(C)c4c3Cl)c2cn1` (single isomer, unassigned) [Example I-305], the Kd was < 10 nM. The value for `Cn1c(Nc2cc(C3CC3)nn(CCO)c2=O)nc2ncc(Oc3cnn4ccccc34)c(Cl)c21` [Example I-126, 4-((7-chloro-1-methyl-6-(pyrazolo[1,5-a]pyridin-3-yloxy)-1H-imidazo[4,5-b]pyridin-2-yl)amino)-6-cyclopropyl-2-(2-hydroxyethyl)pyridazin-3(2H)-one] was < 10 nM. The result for `COc1nccn2ncc(Oc3cnc4nc(Nc5cc(C(F)(F)F)cn(C)c5=O)n(C)c4c3Cl)c12` [Example I-224, 3-((7-chloro-6-((4-methoxypyrazolo[1,5-a]pyrazin-3-yl)oxy)-1-methyl-1H-imidazo[4,5-b]pyridin-2-yl)amino)-1-methyl-5-(trifluoromethyl)pyridin-2(1H)-one] reads < 10 nM; that for `COc1cn2ncc(Oc3cnc4nc(Nc5cc(C(F)(F)F)cn(C)c5=O)n(C)c4c3C#N)c2cn1` [Example I-364, 6-((6-methoxypyrazolo[1,5-a]pyrazin-3-yl)oxy)-1-methyl-2-((1-methyl-2-oxo-5-(trifluoromethyl)-1,2-dihydropyridin-3-yl)amino)-1H-imidazo[4,5-b]pyridine-7-carbonitrile], 10 to 50 nM; that for `Cn1c(Nc2cc(C3CC3)cn([C@H]3C[C@@H](C#N)C3)c2=O)nc2ncc(Oc3cnn4ccncc34)c(Cl)c21` [Example I-80, cis-3-(3-((7-chloro-1-methyl-6-(pyrazolo[1,5-a]pyrazin-3-yloxy)-1H-imidazo[4,5-b]pyridin-2-yl)amino)-5-cyclopropyl-2-oxopyridin-1(2H)-yl)cyclobutane-1-carbonitrile], < 10 nM. On to `COc1cn2ncc(Oc3cnc4nc(Nc5cc(C(F)(F)F)cn(C)c5=O)n(C)c4c3Cl)c2cn1` [Example I-363, 3-((7-chloro-6-((6-methoxypyrazolo[1,5-a]pyrazin-3-yl)oxy)-1-methyl-1H-imidazo[4,5-b]pyridin-2-yl)amino)-1-methyl-5-(trifluoromethyl)pyridin-2(1H)-one], for which the Kd fell in the range of 10 to 50 nM. In the case of `COCCOc1ccc2c(Oc3cnc4nc(Nc5cc(C6CC6)cn(CCO)c5=O)n(C)c4c3Cl)cnn2c1` [Example I-155, 3-((7-chloro-6-((6-(2-methoxyethoxy)pyrazolo[1,5-a]pyridin-3-yl)oxy)-1-methyl-1H-imidazo[4,5-b]pyridin-2-yl)amino)-5-cyclopropyl-1-(2-hydroxyethyl)pyridin-2(1H)-one], the Kd was < 10 nM. In the case of `Cn1c(Nc2cc(C3CC3)cn([C@H]3C[C@H](O)C3)c2=O)nc2ncc(Oc3cnn4ccccc34)c(Cl)c21` [Example I-79, trans-3-((7-chloro-1-methyl-6-(pyrazolo[1,5-a]pyridin-3-yloxy)-1H-imidazo[4,5-b]pyridin-2-yl)amino)-5-cyclopropyl-1-(3-hydroxycyclobutyl)pyridin-2(1H)-one], the Kd is < 10 nM.

`Cn1c(Nc2cc(C(C)(C)C#N)n([C@@H]3CCOC3)n2)nc2ncc(Oc3cnc4ccnn4c3)c(Cl)c21` [Example I-18, (R)-2-(3-((7-chloro-1-methyl-6-(pyrazolo[1,5-a]pyrimidin-6-yloxy)-1H-imidazo[4,5-b]pyridin-2-yl)amino)-1-(tetrahydrofuran-3-yl)-1H-pyrazol-5-yl)-2-methylpropanenitrile] came in with an equilibrium dissociation constant (Kd) of 10 to 50 nM. In the case of `Cn1c(Nc2cc(C(C)(C)C)n([C@H]3CCO[C@@H]3CO)n2)nc2ncc(Oc3cnn4ccnc4c3)c(Cl)c21` [Example I-83, ((2S,3S)-3-(5-(tert-butyl)-3-((7-chloro-6-(imidazo[1,2-b]pyridazin-7-yloxy)-1-methyl-1H-imidazo[4,5-b]pyridin-2-yl)amino)-1H-pyrazol-1-yl)tetrahydrofuran-2-yl)methanol], the Kd is 10 to 50 nM. In the case of `Cn1c(Nc2ccc(CN3CCCOCC3)c(C(F)(F)F)c2)nc2ncc(Oc3cnn4ccncc34)c(Cl)c21` [Example I-298, N-(4-((1,4-oxazepan-4-yl)methyl)-3-(trifluoromethyl)phenyl)-7-chloro-1-methyl-6-(pyrazolo[1,5-a]pyrazin-3-yloxy)-1H-imidazo[4,5-b]pyridin-2-amine], the dissociation constant (Kd) was < 10 nM.

Turning to `Cn1c(Nc2cnc(N3CCC3)c(C(F)(F)F)c2)nc2ncc(Oc3cnn4ccncc34)c(Cl)c21` [Example I-203, N-(6-(azetidin-1-yl)-5-(trifluoromethyl)pyridin-3-yl)-7-chloro-1-methyl-6-(pyrazolo[1,5-a]pyrazin-3-yloxy)-1H-imidazo[4,5-b]pyridin-2-amine], the Kd lay within 10 to 50 nM. `Cn1cc(C(F)(F)F)cc(Nc2nc3ncc(Oc4cnn5ccnc(N[C@H]6CCOC6)c45)c(Cl)c3n2C)c1=O` [Example I-225, (S)-3-((7-chloro-1-methyl-6-((4-((tetrahydrofuran-3-yl)amino)pyrazolo[1,5-a]pyrazin-3-yl)oxy)-1H-imidazo[4,5-b]pyridin-2-yl)amino)-1-methyl-5-(trifluoromethyl)pyridin-2(1H)-one]: the Kd is < 10 nM. The value for `Cn1cc(C(F)(F)F)cc(Nc2nc3ncc(Oc4cnn5ccnc(N[C@@H]6CCOC6)c45)c(Cl)c3n2C)c1=O` [Example I-402, (R)-3-((7-chloro-1-methyl-6-((4-((tetrahydrofuran-3-yl)amino)pyrazolo[1,5-a]pyrazin-3-yl)oxy)-1H-imidazo[4,5-b]pyridin-2-yl)amino)-1-methyl-5-(trifluoromethyl)pyridin-2(1H)-one] was < 10 nM; that for `CNc1nccn2ncc(Oc3cnc4nc(Nc5cc(N6CCN(C)CC6)cc(C(F)(F)F)c5)n(C)c4c3Cl)c12` [Example I-220, 7-chloro-1-methyl-6-((4-(methylamino)pyrazolo[1,5-a]pyrazin-3-yl)oxy)-N-(3-(4-methylpiperazin-1-yl)-5-(trifluoromethyl)phenyl)-1H-imidazo[4,5-b]pyridin-2-amine] was 10 to 50 nM.
